The subject of data set [1] is metastatic colorectal adenocarcinoma (SW620) cells. Nature of the data set: MTT proliferation assay, SW620 cells. Type of data set: cell-based, human. The procedure: (§1) Human carcinoma cell lines A549 (lung carcinoma), HeLa (cervical carcinoma), SW620 (colorectal adenocarcinoma, metastatic) and CFPAC-1 (pancreatic cancer, derived from metastatic: liver), and normal human foreskin (HFF-1) fibroblasts were obtained from the American Type Culture Collection (ATCC, Manassas, VA, USA). Cells were cultured in humidified atmosphere at 37 °C with 5% CO2. As growth medium, Dulbecco′s modified Eagle medium (DMEM) was used with the addition of fetal bovine serum (10%), L-glutamine (2 mM) and antibiotics: streptomycin ([…]) and penicillin (100 U/mL).
(§2) Cells were seeded onto 96-well microtiter plates at a seeding density of 3000 cells/well for carcinoma cell lines, and 5000 cells/well for normal human fibroblasts. The next day, cells were treated with test agents in five different concentrations (0.01–100 µM) and further incubated for 72 h. […] Following 72 h incubation, the MTT assay was performed and measured absorbances were transformed into percentage of cell growth as described previously. Results were obtained from three independent experiments. IC50 values were calculated using linear regression analysis and results were statistically analyzed by ANOVA, Tukey post-hoc test (p < 0.05).
(Formazan colour is commonly taken as a measure of viable cells.)

For data set [2], the system named is cervical carcinoma (HeLa) cells. In words: MTT proliferation assay, HeLa cells. Type of data set: cell-based, human. As to conditions: 72 h incubation. The method, then:
as §1, §2

The test system of data set [3] is lung adenocarcinoma (A549) cells. Nature of the data set: MTT proliferation assay, A549 cells. Type of data set: cell-based, human. The procedure: as §1, §2
Data set [4] concerns normal human foreskin fibroblasts (HFF-1). Nature of the data set: MTT proliferation assay, normal fibroblasts HFF-1. The class given is cell-based. The settings on record: 72 h incubation. The method, then: as §1, §2
For data set [5], the system named is ductal pancreatic adenocarcinoma (CFPAC-1) cells. In words: MTT proliferation assay, CFPAC-1 cells. Type of data set: cell-based, human. The procedure:
as §1, §2

The next data set relates to CFPAC-1 cells. Nature of the data set: Annexin V assay for apoptosis detection. Type of data set: cell-based, human. The settings on record: for viability at 3.95 µM / viability at 1.58 µM: Homo sapiens, CFPAC-1, read-out: viable cells (Ann−/PI−). The method, then: Cells were seeded into 8-well chambers (Lab-tek II Chamber Slides, Thermo Fisher Scientific, Waltham, MA, USA) in a concentration of 2 × 10^4 cells per well and treated with 2 × IC50 and 5 × IC50 concentrations of selected compounds for 48 and 72 h. Staining of the cells was performed by Annexin-V-FITC Staining kit (Santa Cruz Biotechnology, Dallas, TX, USA) according to the manufacturer′s instructions. Cells were visualised by fluorescent microscope (Olympus, Tokyo, Japan) at magnification of 40×.

Data set [6] deals with human tumor cell lines (A549, HeLa, CFPAC-1, SW620). Nature of the data set: MTT proliferation assay, all evaluated tumor cell lines. As to conditions: read-out: antiproliferative activity (IC50) over the evaluated tumor cell lines. Type of data set: cell-based. The method, then: as §1, §2
Setting [7] is: Homo sapiens, SW-620, 72 h incubation.
Setting [8] is: Homo sapiens, A549, 72 h incubation.
Where [9] appears, read: Homo sapiens, CFPAC-1, 72 h incubation.
Setting [10] is: 48 h treatment, 1.85 µM (2 × IC50).
The mark [11] stands for this setting: 48 h treatment, 3.95 µM (5 × IC50).
The mark [12] stands for this setting: 72 h treatment, 1.85 µM (2 × IC50).
[13] abbreviates: 72 h treatment, 3.95 µM (5 × IC50).

Read-outs that look alike come from different tables or passages of the source.

The text below walks through data of paper PMC8199500, “Novel Bis- and Mono-Pyrrolo[2,3-d]pyrimidine and Purine Derivatives: Synthesis, Computational Analysis and Antiproliferative Evaluation” (Molecules, 2021).

The term IC50 denotes the concentration at which inhibition is half-maximal. One may read the melting point as the temperature, or range, at which the solid turns liquid. Compound `C#CCOc1ccc(-c2ccc(OCc3cn(CCn4cnc5c(N6CCCCC6)ncnc54)nn3)cc2)cc1` [9f, 6-(piperidin-1-yl)-9-{2-[4-(((4′-(prop-2-yn-1-yloxy)-[1,1′-biphenyl]-4-yl)oxy)methyl)-1H-1,2,3-triazol-1-yl]ethyl}-9H-purine] returned a melting point of 221 to 225 °C. Besides, the IC50 in data set [1] (setting [7]) came to 23.2 ± 3.2 µM. The compound further had an IC50 in data set [2] (Homo sapiens, HeLa) of 3.9 ± 0.69 µM. The compound further came in with an IC50 in data set [3] (setting [8]) of 9.3 ± 0.1 µM. The compound also gave an IC50 in data set [4] of 4.3 µM. In data set [5] (setting [9]), this compound registered a concentration for half-maximal inhibition (IC50) of 2.9 ± 1 µM.

`c1nc(N2CCCC2)c2ccn(CCn3cc(COc4ccc(OCc5cn(CCn6ccc7c(N8CCCC8)ncnc76)nn5)cc4)nn3)c2n1` [7a, 1,4-Bis{[1-(2-(4-(pyrrolidin-1-yl)-7H-pyrrolo[2,3-d]pyrimidin-7-yl)ethyl)-1H-1,2,3-triazol-4-yl]methoxy}benzene]: the melting point was 193 to 195 °C. The compound also showed a concentration for half-maximal inhibition (IC50) in data set [1] (setting [7]) of 78 ± 2.1 µM. This compound also had an IC50 in data set [2] (Homo sapiens, HeLa) of 6.4 ± 0.35 µM. In data set [3] (setting [8]), this compound registered a concentration for half-maximal inhibition (IC50) of 49.3 ± 6.4 µM. This compound also registered an IC50 in data set [4] of 0.81 µM. In data set [5] (setting [9]), half-maximal inhibition (IC50) required 25.8 ± 0.98 µM.

Regarding `C#CCOc1ccc(-c2ccc(OCc3cn(CCn4ccc5c(Cl)ncnc54)nn3)cc2)cc1` [5f, 4-chloro-7-{2-[4-(((4′-(prop-2-yn-1-yloxy)-[1,1′-biphenyl]-4-yl)oxy)methyl)-1H-1,2,3-triazol-1-yl]ethyl}-7H-pyrrolo[2,3-d]pyrimidine], the IC50 in data set [1] (setting [7]) worked out at 8 ± 1.8 µM; in data set [2] (Homo sapiens, HeLa) it was 0.98 ± 0.44 µM; in data set [3] (setting [8]), 6.9 ± 1.1 µM; in data set [4], 0.62 µM; in data set [5] (setting [9]) it was 0.79 ± 0.03 µM. Besides, the “mode of cell death in CFPAC-1 cells” value in the data set with CFPAC-1 cells (48 and 72 h, 2 × IC50 and 5 × IC50) is “induces apoptosis and primary necrosis in CFPAC-1 cells in a concentration- and time-dependent manner”. Also, the “early apoptotic cells (Ann+)” value in the data set with CFPAC-1 cells (setting [10]) was determined as 11.76 ± 3.58%; with CFPAC-1 cells (setting [11]) it was 21.21 ± 1.35%; with CFPAC-1 cells (setting [12]), 30.36 ± 1.49%; in the data set on CFPAC-1 cells (setting [13]) it was 39.63 ± 8.54%. Moreover, the “late apoptotic/primary necrotic cells (Ann+/PI+)” value in the data set on CFPAC-1 cells (setting [10]) worked out at 5.88 ± 1.44%; in the data set with CFPAC-1 cells (setting [11]), 6.56 ± 0.24%; in the data set with CFPAC-1 cells (setting [12]), 10.71 ± 4.89%; in the data set with CFPAC-1 cells (setting [13]), 26.14 ± 2.57%. Besides, the “secondary necrotic cells (PI+)” value with CFPAC-1 cells (setting [10]) is given as 2.72 ± 0.56%; in the data set with CFPAC-1 cells (setting [11]), 4.05 ± 1.22%; in the data set with CFPAC-1 cells (setting [12]), 2.68 ± 0.37%; in the data set with CFPAC-1 cells (setting [13]) it was 6.3 ± 2.45%. Also, the “decrease in cell viability vs control” value with CFPAC-1 cells (48 h treatment, 5 × IC50) was found to be 28.4%. The “increase in the percentage of cells in early apoptosis vs control” value in the data set with CFPAC-1 cells (48 h treatment, 5 × IC50) stood at 21.21%. Besides, the “increase in early apoptotic cells vs control” value with CFPAC-1 cells (72 h treatment, 2 × IC50) is reported as 24.08%; in the data set on CFPAC-1 cells (72 h treatment, 5 × IC50), 33.35%. Moreover, the “rise in late apoptotic/primary necrotic cells vs control” value with CFPAC-1 cells (72 h treatment, 5 × IC50) came out at 26.14%. The viability at 3.95 µM with CFPAC-1 cells (setting [11]) worked out at 68.2 ± 0.94%; in the data set with CFPAC-1 cells (setting [13]) it was 27.9 ± 3.23%. The viability at 1.58 µM is 79.6 ± 2.57% with CFPAC-1 cells (48 h treatment) and 56.2 ± 6.56% with CFPAC-1 cells (72 h treatment).

As to `c1nc(N2CCCCC2)c2ncn(CCn3cc(COc4ccc(-c5ccc(OCc6cn(CCn7cnc8c(N9CCCCC9)ncnc87)nn6)cc5)cc4)nn3)c2n1` [9b, 4,4′-Bis((1-(2-(6-(piperidin-1-yl)-9H-purin-9-yl)ethyl)-1H-1,2,3-triazol-4-yl)methoxy)-1,1′-biphenyl], the IC50 in data set [1] (setting [7]) stood at 5.2 ± 2.2 µM; in data set [2] (Homo sapiens, HeLa), 3.8 ± 0.81 µM; in data set [3] (setting [8]), 12.3 ± 3.4 µM; in data set [4], 0.79 µM; in data set [5] (setting [9]), 8.1 ± 1.3 µM.

Turning to “{1-[2-(4-(Piperidin-1-yl)-7H-pyrrolo[2,3-d]pyrimidin-7-yl)ethyl]-1H-1,2,3-triazol-4-yl}methyl ether [6d]”, the IC50 was 45.5 ± 3.3 µM in data set [1] (72 h incubation); 28.2 ± 9 µM in data set [2]; 51.9 ± 3 µM in data set [3] (72 h incubation); 28.2 to 65.2 µM in data set [6]; 37.9 ± 3.7 µM in data set [5] (72 h incubation).

`c1nc(N2CCCCC2)c2ccn(CCn3cc(CCCc4cn(CCn5ccc6c(N7CCCCC7)ncnc65)nn4)nn3)c2n1` [6c, 1,3-Bis{1-[2-(4-(piperidin-1-yl)-7H-pyrrolo[2,3-d]pyrimidin-7-yl)ethyl]-1H-1,2,3-triazol-4-yl}propane]: the melting point was 145 to 147 °C. The midpoint of inhibition in data set [1] (setting [7]), the IC50, lay at 65.2 ± 4.8 µM. In addition, the 50% inhibitory concentration (IC50) in data set [2] (Homo sapiens, HeLa) stood at 33.7 ± 8.9 µM. The compound also returned an IC50 in data set [3] (setting [8]) of 59.3 ± 4.9 µM. In addition, the IC50 in data set [6] (Homo sapiens) lay in the range of 28.2 to 65.2 µM. In data set [5] (setting [9]), this compound registered an IC50 of 48.7 ± 1.5 µM.
